This passage reports Emax, IC50 and inhibition results from US10414739B2, “Compounds as inhibitors of the YAP/TAZ-TEAD interaction and their use in the treatment of malignant mesothelioma” (INVENTIVA, priority 2015, dated 2019).

Counter-ions that a name gives are not always drawn.

The target in the experiment is T1, YAP-TEAD interaction (human YAP2-His6 (50-114) / human TEAD1-GST (209-426)) (Homo sapiens, UniProt P28347).
T1 construct: GST-TEAD1 (209-426) produced in E. coli; made in house; host or cells: E. coli
Kind of experiment: YAP-TEAD AlphaLISA assay. The experiment is classed as binding. As to conditions: for Emax: 2 h, maximal % inhibition, read-out: Max Act.; for Emax / IC50: YAP-TEAD AlphaLISA; for IC50: 2 h equilibration at room temperature. The protocol:
YAP-TEAD AlphaLISA Assay for IC50 Value Determination.
YAP-TEAD binding and inhibition was assessed by monitoring the engagement of YAP2 peptide (human YAP2-His6 (50-114) produced in E. coli) with TEAD (human TEAD1-GST (GST-TEAD1 (209-426) produced in E. coli) using the AlphaLisa technology (Perkin-Elmer). Specifically, in a 384 well (Axygen) 5 μl of compounds were dispensed in 100% DMSO following a semi log serial dilution, with a top concentration of […] (10 concentrations). A ‘3 partners solution’ was prepared by mixing AlphaScreen Glutathione Donor beads 15 μg/ml (PerkinElmer), Anti-6×His AlphaLisA Acceptor beads 15 μg/ml (PerkinElmer) and Human YAP2 9 nM in 100 mM NaCl, 25 mM Hepes, 0.1% BSA, 0.5% NoNidet®P40 buffer. In the 384 assay plate (Proxiplate, Perkin-Elmer)) 2 μl of compound at each concentration, 6 μl of buffer, 6 μl of hTEAD1-GST 9 nM and 6 μl of ‘3 partner solution’ were mixed. After 2 h equilibration at room temperature in the dark the plates were read on an Envision instrument (Excitation @ 680 nm/Emission @ 570 nm, Perkin Elmer).
Results were expressed as % inhibition=100×((HighControl−Cpd)/(HighControl−LowControl)), were High control is the maximum response obtained with all components and Low control is the basal response obtained with all components without GST-Tead1.
Cpd is the response obtained for test compounds.
IC50 (half maximal inhibitory concentration) was determined by fitting the concentration response curves using a 3-parameter curve fit equation and determining concentration corresponding to 50% inhibition.

T1 sequence (P28347 209-426): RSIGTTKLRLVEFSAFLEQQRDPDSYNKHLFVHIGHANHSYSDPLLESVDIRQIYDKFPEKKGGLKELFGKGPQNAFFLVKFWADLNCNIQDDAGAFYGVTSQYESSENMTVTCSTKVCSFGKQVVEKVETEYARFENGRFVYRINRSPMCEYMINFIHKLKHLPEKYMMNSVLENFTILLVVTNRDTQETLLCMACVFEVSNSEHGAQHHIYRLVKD

Regarding `COCCN(/N=C/c1ccc(O)c(OC)c1)C1=NS(=O)(=O)c2c(OC)cc(OC)cc21` [Example 19, 4-[(E)-[(5,7-dimethoxy-1,1-dioxo-1,2-benzothiazol-3-yl)-(2-methoxyethyl) hydrazono]methyl]-2-methoxy-phenol], the Emax was 92% and the IC50 stood at 626 nM.
As to `COc1cc(OC)c2c(c1)C(N(C)/N=C/c1ccc(O)c(OC)c1)=NS2(=O)=O` [Example 16, 4-[(E)-[(5,7-dimethoxy-1,1-dioxo-1,2-benzothiazol-3-yl)-methyl-hydrazono]methyl]-2-methoxy-phenol], the Emax turned out to be 86% and half-maximal inhibition (IC50) was put at 95 nM.
Turning to `CCN(/N=C/c1ccc(O)c(OC)c1)C1=NS(=O)(=O)c2ccccc21` [Example 3, 4-[(E)-[(1,1-dioxo-1,2-benzothiazol-3-yl)-ethyl-hydrazono]methyl]-2-methoxy-phenol], the Emax came out at 88% and it took 5000 nM to reach half-maximal inhibition (IC50).
For `COc1cc(/C=N/N(CCCN(C)C)C2=NS(=O)(=O)c3ccccc32)ccc1O` [Example 6, 4-[(E)-[3-(dimethylamino)propyl-(1,1-dioxo-1,2-benzothiazol-3-yl)hydrazono]methyl]-2-methoxy-phenol hydrochloride], the Emax is 95% and the half-inhibitory concentration (IC50) was determined as 7040 nM.
Take `COCCN(/N=C/c1ccc(O)c(OC)c1)C1=NS(=O)(=O)c2ccc(OC)cc21` [Example 15, 2-methoxy-4-[(E)-[(5-methoxy-1,1-dioxo-1,2-benzothiazol-3-yl)-(2-methoxyethyl)hydrazono]methyl]phenol]: the Emax came to 89% and half-maximal inhibition (IC50) required 2890 nM.
On to `COc1cc(/C=N/N(C)C2=NS(=O)(=O)c3ccc(F)cc32)ccc1O` [Example 42, 4-[(E)-[(5-fluoro-1,1-dioxo-1,2-benzothiazol-3-yl)-methyl-hydrazono]-methyl]-2-methoxy-phenol], for which the Emax is 84% and inhibition was half-maximal at 2470 nM (IC50).
Turning to `COc1cc(/C=N/N(CC(=O)NCCO)C2=NS(=O)(=O)c3ccccc32)ccc1O` [Example 9, 2-[(1,1-dioxo-1,2-benzothiazol-3-yl)-[(E)-(4-hydroxy-3-methoxy-phenyl)methyleneamino]amino]-N-(2-hydroxyethyl)acetamide], the Emax was 96% and half-maximal inhibition (IC50) required 11600 nM.
As for `COCCN(/N=C/c1ccc(O)c(OC)c1)C1=NS(=O)(=O)c2c(OC)cc(C)cc21` [Example 30, 2-methoxy-4-[(E)-[2-methoxyethyl-(7-methoxy-5-methyl-1,1-dioxo-1,2-benzothiazol-3-yl)hydrazono]methyl]phenol], the Emax was 90% and the midpoint of inhibition, the IC50, lay at 878 nM.
As for `COc1cc(/C=N/N(C2=NS(=O)(=O)c3ccccc32)c2ccc(C(=O)O)cc2)ccc1O` [Example 38, 4-[(1,1-dioxo-1,2-benzothiazol-3-yl)-[(E)-(4-hydroxy-3-methoxy-phenyl)methyleneamino]amino]benzoic acid], the Emax was 99% and the half-inhibitory concentration (IC50) turned out to be 105000 nM.
On the same counts, the results for `COc1cc(/C=N/N(CCCO)C2=NS(=O)(=O)c3ccccc32)ccc1O` [Example 5, 4-[(E)-[(1,1-dioxo-1,2-benzothiazol-3-yl)-(3-hydroxypropyl)hydrazono]-methyl]-2-methoxy-phenol] are 88% and 5500 nM.
As for `COCCN(/N=C/c1ccc(O)c(OC)c1)C1=NS(=O)(=O)c2c(OC)cccc21` [Example 24, 2-methoxy-4-[(E)-[(7-methoxy-1,1-dioxo-1,2-benzothiazol-3-yl)-(2-methoxyethyl)hydrazono]methyl]phenol], the Emax was determined as 92% and it took 902 nM to reach half-maximal inhibition (IC50).
Take `COc1cc(/C=N/N(CCO)C2=NS(=O)(=O)c3c(OC)cc(C)cc32)ccc1O` [Example 29, 4-[(E)-[2-hydroxyethyl-(7-methoxy-5-methy-1,1-dioxo-1,2-benzothiazol-3-yl) hydrazono]methyl]-2-methoxy-phenol]: the Emax turned out to be 91% and the half-inhibitory concentration (IC50) is 130 nM.
The like results for `COCCN(/N=C/c1ccc(O)c(OC)c1)C1=NS(=O)(=O)c2ccc(C)cc21` [Example 28, 2-methoxy-4-[(E)-[2-methoxyethyl-(5-methyl-1,1-dioxo-1,2-benzothiazol-3-yl) hydrazono]methyl]phenol] were, in that order, 94% and 2650 nM.
For `COc1cc(/C=N/N(C2=NS(=O)(=O)c3ccccc32)C(C)C)ccc1O` [Example 36, 4-[(E)-[(1,1-dioxo-1,2-benzothiazol-3-yl)-isopropyl-hydrazono]methyl]-2-methoxy-phenol], the Emax turned out to be 77% and half-maximal inhibition (IC50) was put at 78000 nM.
On the same counts, the results for `COc1ccc2c(c1)C(N(CCCN1CCOCC1)/N=C/c1ccc(O)c(OC)c1)=NS2(=O)=O` [Example 13, 2-methoxy-4-[(E)-[(5-methoxy-1,1-dioxo-1,2-benzothiazol-3-yl)-(3-morpholinopropyl)hydrazono]methyl]phenol hydrochloride] are 95% and 2120 nM.
On the same counts, the results for `COc1cc(/C=N/N(CCN2CCOCC2)C2=NS(=O)(=O)c3ccc(C)cc32)ccc1O` [Example 26, 2-methoxy-4-[(E)-[(5-methyl-1,1-dioxo-1,2-benzothiazol-3-yl)-(2-morpholinoethyl)hydrazono]methyl]phenol hydrochloride] are 95% and 399 nM.
As for `COc1ccc2c(c1)C(N(C)/N=C/c1ccc(O)c(OC)c1)=NS2(=O)=O` [Example 35, 2-methoxy-4-[(E)-[(5-methoxy-1,1-dioxo-1,2-benzothiazol-3-yl)-methyl-hydrazono]methyl]phenol], the Emax turned out to be 77% and half-maximal inhibition (IC50) required 354 nM.
Take `COCCCN(/N=C/c1ccc(O)c(OC)c1)C1=NS(=O)(=O)c2ccccc21` [Example 10]: the Emax was 92% and the midpoint of inhibition, the IC50, lay at 5000 nM.
Turning to `COc1ccc2c(c1)C(N(CCN1CCOCC1)/N=C/c1ccc(O)c(OC)c1)=NS2(=O)=O` [Example 12, 2-methoxy-4-[(E)-[(5-methoxy-1,1-dioxo-1,2-benzothiazol-3-yl)-(2-morpholinoethyl)hydrazono]methyl]phenol], the Emax is 95% and the IC50 is 583 nM.
On the same counts, the results for `COc1cc(/C=N/N(CCC(=O)O)C2=NS(=O)(=O)c3ccccc32)ccc1O` [Example 8, 3-[(1,1-dioxo-1,2-benzothiazol-3-yl)-[(E)-(4-hydroxy-3-methoxy-phenyl)methyleneamino]amino]propanoic acid] are 94% and 1100 nM.
Turning to `COc1cc(/C=N/N(CC(F)(F)F)C2=NS(=O)(=O)c3ccccc32)ccc1O` [Example 37, 4-[(E)-[(1,1-dioxo-1,2-benzothiazol-3-yl)-(2,2,2-trifluoroethyl)-hydrazono]methyl]-2-methoxy-phenol], the Emax is 74% and the half-inhibitory concentration (IC50) is 70800 nM.
Take `COc1ccc(/C=N/N(C)C2=NS(=O)(=O)c3ccccc32)cc1OC` [N-[(E)-(3,4-dimethoxyphenyl)methyleneamino]-N-methyl-1,1-dioxo-1,2-benzothiazol-3-amine, reference compound]: at 1000 µM the inhibition (at 1 mM concentration) was 30%.
As for `COc1cc(/C=N/N(CCO)C2=NS(=O)(=O)c3c(OC)cccc32)ccc1O` [Example 22, 4-[(E)-[2-hydroxyethyl-(7-methoxy-1,1-dioxo-1,2-benzothiazol-3-yl) hydrazono]methyl]-2-methoxy-phenol], the Emax is 97% and half-maximal inhibition (IC50) required 83 nM.
